Assay results as given in article PMC9805938 (Journal of Pharmaceutical Analysis, 2020).

Target: T1, transforming growth factor-β receptor type-I (TGF-β RI) (Homo sapiens, UniProt P36897)
T1 sequence (P36897 34-503): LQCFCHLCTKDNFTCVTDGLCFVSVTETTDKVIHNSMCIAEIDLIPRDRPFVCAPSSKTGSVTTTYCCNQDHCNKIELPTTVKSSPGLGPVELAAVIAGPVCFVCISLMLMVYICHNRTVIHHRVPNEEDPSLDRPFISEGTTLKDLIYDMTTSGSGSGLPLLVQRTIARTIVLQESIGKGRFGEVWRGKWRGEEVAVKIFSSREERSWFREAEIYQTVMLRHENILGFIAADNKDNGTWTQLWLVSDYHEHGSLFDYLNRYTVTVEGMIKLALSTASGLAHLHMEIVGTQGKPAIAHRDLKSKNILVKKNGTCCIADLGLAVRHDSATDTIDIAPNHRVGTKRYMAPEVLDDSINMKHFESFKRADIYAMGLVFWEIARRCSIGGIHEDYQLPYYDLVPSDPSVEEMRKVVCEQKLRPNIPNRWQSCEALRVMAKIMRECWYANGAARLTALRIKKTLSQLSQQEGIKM
Format: biochemical

IC50: 2210 ± 266 nM
SMILES: Oc1ccc(/C=C/c2cc(O)cc(O)c2)cc1 [compound 12, Resveratrol]
